Data on eight molecules can be found in US7217557B1, “Three-dimensional structure of polyketide synthases” (The Salk Institute for Biological Studies, priority 1999, dated 2007).

Entries after “also recorded” stand apart in the source; their conditions may differ.

One series relates to CHS. The settings on record: covalently modifies Cys164; Lanz et al. 1991; cited from earlier work.
Series [1] is described as follows: TLC-based radiometric assay of product formation by 2-PS, CHS and CHS mutants. Type of series: biochemical. The settings on record: for polyketide product formed: TLC, triple mutant and 2-PS confirmed by LC/MS; for starter molecule accepted: p-coumaroyl-CoA or acetyl-CoA as starter. The source says: Comparison of the initiation/elongation cavities of 2-PS and CHS reveal four amino acid differences. In 2-PS, Leu202, Met259, Leu261, and Ile343 replace Thr197, Ile254, Gly256, and Ser338, respectively, of CHS. These four substitutions reduce cavity volume from 923 Å^3 in CHS to 274 Å^3 in 2-PS. A model of methylpyrone in the 2-PS cavity, based on the position of acetoacetyl-CoA, emphasizes the volume change compared to the CHS-naringenin complex (Accession No. 1CGK). Leu202 and Ile343 occlude the portion of the 2-PS cavity corresponding to the coumaroyl-binding site of CHS. Replacement of Gly256 in CHS by Leu261 in 2-PS severely reduces the size of the active site cavity. Substitution of Met259 in 2-PS for Ile254 in CHS produces a modest alteration in cavity volume. To examine the functional importance of these amino acid differences, the initiation/elongation cavity of CHS was altered by mutagenesis to resemble that of 2-PS. The resulting mutant proteins were screened for activity using either p-coumaroyl-CoA or acetyl-CoA as starter molecules. Activities of 2-PS, CHS, and the CHS mutants were determined by monitoring product formation using a TLC-based radiometric assay. Assay conditions were 100 mM Hepes (pH 7.0), 30 μM starter-CoA (either p-coumaroyl-CoA or acetyl-CoA), and 60 μM [^14C]-malonyl-CoA (50,000 cpm) in 100 μl at 25° C. Reactions were quenched with 5% acetic acid, extracted with ethyl acetate, and applied to TLC plates and developed. Due to the spontaneous cyclization of chalcone into the flavanone naringenin, activities of CHS are referenced to naringenin formation.
The x-ray crystal structures of 2-PS and CHS imply that the size of the active site cavity limits polyketide length and modulates folding of the polyketide chain. […] Since the T197L, G256L, and S338I mutants altered product formation, a CHS triple mutant was generated. […] LC/MS/MS analysis was performed by the Mass Spectroscopy facility of the Scripps Research Institute. Scaled-up assays (2 ml reaction volume) with the CHS T197L/G256L/S338I mutant and 2-PS were performed. Extracts were analyzed on a Hewlett-Packard HP1100 MSD single quadrupole mass spectrometer coupled to a ZorbaxSB-C18 column (5 μm, 2.1 mm×150 mm). HPLC conditions were as follows: gradient system from 0 to 100% methanol in water (each containing 0.2% acetic acid) within 10 min; flow rate 0.25 ml min^−1. LC/MS/MS data from both reactions were identical: 6-methyl-4-hydroxy-2pyrone, Rt=5.068 min; [M-H]^−125 (41); [M-H—CO2]^−[…] (100). The numbers show m/z values with relative intensities in parenthesis. The observed fragmentation matches previously published data.

Series [2] in a line: Functional assay of malonyl-CoA decarboxylation by the C164S mutant. Type of series: biochemical. To be noted: determined crystallographically and confirmed by a functional assay. An excerpt:
Asn336 appears to play a crucial role in the decarboxylation reaction. […] In the hexanoyl-CoA complex, the side chain amide of Asn336 provides a hydrogen bond to the carbonyl oxygen of the thioester. This interaction would stabilize the enolate anion resulting from decarboxylation of malonyl-CoA (see FIG. 6). At the same time, the lack of formal positive charge at Asn336 may preserve the partial carbanion character of this resonance-stabilized anion, and thus the nucleophilicity of the carbanion form.

Setting [3] is: 30 μM starter-CoA, 60 μM [14C]-malonyl-CoA, pH 7.0, 25° C.

For the molecule `C/C=C/C/C=C/CCC(=O)[C@H]1O[C@H]1C(N)=O` [Cerulenin], in the series on CHS, the “inhibition of CHS” value is “potent irreversible inhibitor”.

As to “CHS I254M: CHS mutant I254M of SEQ ID NO:1”, in series [1], the “specific activity compared with wild-type enzyme” value is given as “functionally comparable to wild-type enzyme with a modest reduction in specific activity” and the polyketide product formed result is given as “yields chalcone”. Turning to G256L: CHS mutant G256L of SEQ ID NO:1, the “preference for acetyl-CoA over coumaroyl-CoA as starter molecule” value in series [1] (setting [3]) stood at 3 fold. The polyketide product formed entry in series [1] is given as “do not form chalcone”. As to “T197L/G256L/S338I: CHS triple mutant with active site sterically analogous to 2-pyrone synthase”, in series [1], the polyketide product formed result is given as “produces only methylpyrone” and the starter molecule accepted result is listed as “only accepts acetyl-CoA (or malonyl-CoA)”.

For S338I: CHS mutant S338I of SEQ ID NO:1, the “preference for p-coumaroyl-CoA versus acetyl-CoA as starter molecule” value in series [1] (setting [3]) turned out to be 3 fold. Further, in series [1], the polyketide product formed entry is listed as “do not form chalcone; also recorded: form a distinct product”.

On to T197L: CHS mutant T197L of SEQ ID NO:1, for which the “preference for p-coumaroyl-CoA versus acetyl-CoA as starter molecule” value in series [1] (setting [3]) was 10 fold. Further, the polyketide product formed entry in series [1] is reported as “do not form chalcone; also recorded: form a distinct product”.

With “2-PS: 2-Pyrone synthase from Gerbera hybrida, expressed in E. coli”, in series [1], the polyketide product formed result is “produces the triketide methylpyrone” and the starter molecule accepted result is reported as “accepts acetyl-CoA but does not use p-coumaroyl-CoA”.

B1: C164S: CHS mutant C164S of SEQ ID NO:1 (protein, UniProt P30074 1-389, looked up, variant C164S)
Chalcone synthase 2: MVSVSEIRKAQRAEGPATILAIGTANPANCVEQSTYPDFYFKITNSEHKTELKEKFQRMCDKSMIKRRYMYLTEEILKENPNVCEYMAPSLDARQDMVVVEVPRLGKEAAVKAIKEWGQPKSKITHLIVCTTSGVDMPGADYQLTKLLGLRPYVKRYMMYQQGSFAGGTVLRLAKDLAENNKGARVLVVCSEVTAVTFRGPSDTHLDSLVGQALFGDGAAALIVGSDPVPEIEKPIFEMVWTAQTIAPDSEGAIDGHLREAGLTFHLLKDVPGIVSKNITKALVEAFEPLGISDYNSIFWIAHPGGPAILDQVEQKLALKPEKMNATREVLSEYGNMSSACVLFILDEMRKKSTQNGLKTTGEGLEWGVLFGFGPGLTIETVVLRSVAI
As for B1, the “decarboxylation of malonyl-CoA / residual catalytic activity” value in series [2] is listed as “retains limited catalytic activity; also recorded: produces acetyl-CoA”.
